In US9610233B2, “Hair thickening compositions and methods of use” (The Procter & Gamble Company, priority 2013, dated 2017):

How the values were obtained:
[1] = Measurement of Average Thickness Increase of single hair fibers; conditions: Sepigel 1.89%, Example 1 formula, fibers treated 10 minutes, dried overnight
Protocol: Measurement of Average Thickness Increase
• 1) Asian or Caucasian hair fibers (low-lift general population) are soaked in deionized water for 10 minutes, and allowed to equilibrate overnight in at Controlled Temperature and Humidity room (20 C, 50 RH). • 2) The single hair fibers are imaged with microscope and the diameter is measured using software for baseline measurement. • 3) The hair fibers are then treated with the hair care composition for 10 minutes to allow for saturation. The fibers are then removed and allowed to equilibrate and dry overnight. • 4) The next day, the fibers are imaged and measured for a final reading. For each experiment, untreated control and product treatment controls are ran, and at least 5 fibers are measured per treatment. • 5) In order to measure increase in thickness as a function of treatment, the […]. The average thickness increase is reported in the Table above, with measurements reported in micrometers. Viscosity Test Method

[2] = Viscosity Test Method (cone and plate viscometer/rheometer); type: physicochemical; conditions: Sepigel 1.89%
Text: The hair care composition may have a viscosity of from about 2,000 cps to about 20,000 cps, alternatively from about 10,000 cps to about 15,000 cps. The viscosity of the hair care composition may be determined by a cone and plate viscometer/rheometer which measures the viscous drag resulting from the sample material contained in the gap between a rotating cone and a stationary plate. The geometry of the cone and plate may be such that the entire sample is subjected to a uniform shear rate. A Brookfield Rheometer RS, with Cone C75-1, 26.7° C. temperature, 2.5 mL sample size, at 2 res/sec for 3 minutes may be used.

Compound: Oc1cccc(O)c1 [Resorcinol, 1,3-Dihydroxybenzene]
- Average Thickness Increase ([1]; Resorcinol 0.5%): 4.2 μm
- Average Thickness Increase ([1]; Resorcinol 1%): 3.9 μm
- Average Thickness Increase ([1]; Resorcinol 2%): 13.5 μm
- Average Thickness Increase ([1]; Resorcinol 5%): 10.7 μm
- Average Thickness Increase ([1]; Resorcinol 8%): 10.3 μm
- Viscosity ([2]; composition with Resorcinol 0.5%): 14767 cps
- Viscosity ([2]; composition with Resorcinol 1%): 12115 cps
- Viscosity ([2]; composition with Resorcinol 2%): 13812 cps
- Viscosity ([2]; composition with Resorcinol 5%): 12047 cps
- Viscosity ([2]; composition with Resorcinol 8%): 10308 cps
